Where two headings read alike, the source gives them in different places.
Tests used:
[1] = system: HeLa cells transfected with the GFP1:Caspase-3:Rluc sensor; experiment: BRET apoptosis sensor assay; type: cell-based; conditions: staurosporine 1 μM, 5 hours
Method: PGFP1:caspase-3:Rluc DNAs and the original plasmid pGFP1::Rluc (without the caspase-3 site) were transfected into HeLa cell using LipofectAMINE (BRL/Gibco-Life technologies) in 100 mm dishes and 8 μg of plasmid DNA as described in the manufacturer's protocol. Twenty-four hours post-transfection transfected cells were harvested and distributed into 96-well microtiterplate (white Optiplate from Packard) at a density of 30 000 cells per well. […] Cells were incubated for 5 hours at 37° C. After this period, 50 μl of BRET buffer (PBS Ca^2+/Mg^2++glucose without aprotinin) and 50 μl of DeepBlueC (20 μM) were added to start the bioluminescence reaction. Total assay volume was 200 μl. Light emissions were detected using the BRETCount (read length of 1 sec. for each filter, SPC mode, temperature 25° C.).

[2] = Coelenterazine 400a stock solution stability (luminescence with CHO cells expressing Rluc, BRETCount); type: physicochemical
Method: Coelenterazine stability: Three different stock solutions of coelenterazine 400a (dissolved in anhydrous ethanol), prepared at different times, were tested using the BRETCount. CHO cells were transiently transfected with pcDNA3.1-Rluc only. Forty-eight hours later, 50 000 cells in complete BRET buffer were distributed in wells (96-well white Optiplate). Coelenterazine 400a from the various stocks were then added to start the bioluminescent reaction. […] A reduction of 22% is observed for the older stock (made Feb. 19, 1999) compared to a stock freshly made (Aug. 6, 1999). […].
FIG. 9 represents the same bioluminescent reactions as in FIG. 8 but at t=5 min after addition of the coelenterazines. In this case no significant difference was observed between the various coelenterazine stocks.
Coel400a stored for a longer period of time (6 months), does show a loss of potential but it remains acceptable and workable for the BRET system.

[3] = molecular target: V2-R (Homo sapiens, UniProt P30518); conditions: AVP 50 nM, 20 minutes
Method: BRET assays: HEK293 cell line were transiently co-transfected using the donor and acceptor fusion construct DNAs and LipofectAMINE 2000 (Life Technologies) in 100 mm dishes as described in the manufacturer's protocol. For the transfections, a DNA ratio of 4 μg:46 μg (donor fusion construct: acceptor fusion construct) was used. The donor fusion constructs were the V2-R:Rluc (h) fusion constructs and the acceptor fusion construct was either the pcDNA3.1hyg/GFP1:β-arrestin2 or the pcDNA3.1hyg/β-arrestin2:GFP1. […] Fifty thousand transfected cells per well were added to white 96-well plates (Optiplate, Packard Instrument Company). […] Cells were then incubated for 20 minutes at room temperature in a total volume of 37.5 μl. After the incubation period, 12.5 μl of DeepBlueC at 20 μM (also called Coel400a) was added in each well (final concentration of 5 μM). Final assay volume was 50 μl. Donor and acceptor light outputs were quantified with the Fusion microtiterplate analyzer (Packard Instrument Company) using the following instrument setting:
Read length: 1 sec per well per filter.
Results represent the mean+/−SEM of quadruplicate wells. […] In all cases, background levels (wells with only DBC in PBS+) were subtracted.

[4] = molecular target: V2 receptor (Homo sapiens, UniProt P30518); conditions: saturating dose, V2-Rluc + β-arrestin2-GFP, FIG. 22
Method: The Rluc (BDP) was fused to the C-terminus of the GPCR and the GFP (FAM) was fused to the C-terminus of β-arrestin. Therefore, shortly after ligand binding (5-30 minutes) the BRET ratio should increase due to binding of β-arrestin to the GPCR, which brings the GFP in proximity to Rluc.
HEK293 cell line were transiently transfected using the DNA constructs and LipofectAMINE™ 2000 (BRL/Gibco) in 100 mm dishes as described in the manufacturer's protocol. […] Bioluminescent reactions were analysed using the BRETCount with appropriate filters.
Transfected cells were added (50 000 cells (in BRET buffer) per well) to the wells in white 96-well plates (Optiplate, Packard Instrument). […] In the other half, BRET buffer, alone, was added. Cells were then incubated for 10-20 minutes at room temperature before adding the coel400a. The analysis was performed at 25° C., integration time 2 sec per wavelength in luminescence mode. The filters used were: for Rluc emission 410DF80 (from Omega); for GFP D515/50M (from Chroma). Coel400a, at a working concentration of 40 μM (final 5 μM), was added to each well to start the bioluminescent reaction. The final reaction volume was 50 μl. Assays were done in quadruplicate.
For all fusion constructs, a 6 amino acid linker was inserted, between the Rluc or GFP and the receptor (β2, β3 or V2) or β-arrestin2. […]

CN[C@@H]1C[C@H]2O[C@@](C)([C@@H]1OC)n1c3ccccc3c3c4c(c5c6ccccc6n2c5c31)C(=O)NC4 [staurosporine]
BRET ratio change (decrease) ([1]; cells transfected with pGFP1:caspase-3:Rluc, time zero): 0.72 unit | change in BRET ratio ([1]; cells transfected with pGFP::Rluc (without the caspase-3 site)): No change

O=c1c(Cc2ccccc2)nc2c(Cc3ccccc3)[nH]c(-c3ccccc3)cn1-2 [Coelenterazine 400a, phenylcoelenterazine]
reduction of luminescent signal immediately after addition of the substrate ([2]; stock in anhydrous ethanol made Feb. 19, 1999 compared to stock freshly made (Aug. 6, 1999)): 22% | luminescence reduction immediately after addition of the substrate ([2]; stock in anhydrous ethanol made Jul. 22, 1999 compared to stock freshly made (Aug. 6, 1999)): did not demonstrate significant luminescence reduction

Arg^8-vasopressin [AVP]
BRET signal in presence of AVP ([3]; V2-R:Rluc + GFP1:β-arrestin2, 10 min after DeepBlueC): 0.129 | BRET signal in presence of AVP ([3]; V2-R:Rluc + β-arrestin2:GFP1, 10 min after DeepBlueC): 0.087 | BRET ratio in the presence of the agonist [4]: increased

— patent publication US20030203404A1, “Bioluminescence resonance energy transfer( bret) system with broad spectral resolution between donor and acceptor emission wavelengths and its use” (priority 1999, published 2003)
